Measured values published in the supplement of paper PMC10307832.

How the values were obtained:
Assay in all cases: relative viability (nuclei count vs DMSO), 5 days (fraction); higher = more cells survive
[1] = system: NCI-H1666; details: first compound 8 µM
How it was run: (§1)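 Lung cancer cell lines were pin-tool dosed in 1536-well plates on the day after seeding, with either a lone drug or a fixed anchor-drug dose plus five library-drug doses (not always all listed) in √10 steps. Nuclei were counted on 4× images after 5 days. Relative viability is the ratio of treated-well to vehicle-well nuclei counts, with each value a median of duplicate plates.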

[2] = system: NCI-H1755
How it was run: as §1

[3] = system: NCI-H1915
How it was run: as §1

[4] = system: NCI-H1975
How it was run: as §1

[5] = system: NCI-H1993
How it was run: as §1

[6] = system: NCI-H2023
How it was run: as §1

[7] = system: NCI-H2085
How it was run: as §1

[8] = system: NCI-H2126
How it was run: as §1

[9] = system: NCI-H3122
How it was run: as §1

[10] = system: NCI-H322M
How it was run: as §1

[11] = system: NCI-H441
How it was run: as §1

[12] = system: UMC-11
How it was run: as §1

C=C1C(=O)O[C@@H](CCCCCCCC)[C@@H]1C(=O)O [C-75] + CC(C)C[C@H](NC(=O)[C@H](Cc1ccccc1)NC(=O)c1cnccn1)B(O)O [Bortezomib] (partner 0.002 µM)
relative viability [1]: 0.641 | relative viability ([2]; first compound 0.08 µM): 0.985 | relative viability ([2]; first compound 0.253 µM): 0.96 | relative viability ([2]; first compound 0.8 µM): 0.925 | relative viability ([2]; first compound 2.53 µM): 0.805 | relative viability ([2]; first compound 8 µM): 0.957 | relative viability ([3]; first compound 0.08 µM): 0.89 | relative viability ([3]; first compound 0.253 µM): 0.977 | relative viability ([3]; first compound 0.8 µM): 0.935 | relative viability ([3]; first compound 2.53 µM): 0.81 | relative viability ([3]; first compound 8 µM): 0.922 | relative viability ([4]; first compound 0.08 µM): 0.332 | relative viability ([4]; first compound 0.253 µM): 0.395 | relative viability ([4]; first compound 0.8 µM): 0.4 | relative viability ([4]; first compound 2.53 µM): 0.283 | relative viability ([4]; first compound 8 µM): 0.361 | relative viability ([5]; first compound 0.08 µM): 0.951 | relative viability ([5]; first compound 0.253 µM): 1.24 | relative viability ([5]; first compound 0.8 µM): 1.08 | relative viability ([5]; first compound 2.53 µM): 0.54 | relative viability ([5]; first compound 8 µM): 1.09 | relative viability ([6]; first compound 0.08 µM): 1.04 | relative viability ([6]; first compound 0.253 µM): 1.22 | relative viability ([6]; first compound 0.8 µM): 0.902 | relative viability ([6]; first compound 2.53 µM): 0.843 | relative viability ([6]; first compound 8 µM): 0.835 | relative viability ([7]; first compound 0.08 µM): 1.13 | relative viability ([7]; first compound 0.253 µM): 0.882 | relative viability ([7]; first compound 0.8 µM): 0.999 | relative viability ([7]; first compound 2.53 µM): 0.76 | relative viability ([7]; first compound 8 µM): 0.897 | relative viability ([8]; first compound 0.08 µM): 1.1 | relative viability ([8]; first compound 0.253 µM): 1.29 | relative viability ([8]; first compound 0.8 µM): 1.09 | relative viability ([8]; first compound 2.53 µM): 0.886 | relative viability ([8]; first compound 8 µM): 1.08 | relative viability ([9]; first compound 0.08 µM): 1.01 | relative viability ([9]; first compound 0.253 µM): 0.987 | relative viability ([9]; first compound 0.8 µM): 0.989 | relative viability ([9]; first compound 8 µM): 1.04 | relative viability ([10]; first compound 0.08 µM): 1.36 | relative viability ([10]; first compound 0.253 µM): 1.45 | relative viability ([10]; first compound 0.8 µM): 1.21 | relative viability ([10]; first compound 2.53 µM): 1.09 | relative viability ([10]; first compound 8 µM): 1.25 | relative viability ([11]; first compound 0.08 µM): 0.497 | relative viability ([11]; first compound 0.253 µM): 0.259 | relative viability ([11]; first compound 0.8 µM): 0.447 | relative viability ([11]; first compound 2.53 µM): 0.315 | relative viability ([11]; first compound 8 µM): 0.26 | relative viability ([12]; first compound 0.08 µM): 0.691 | relative viability ([12]; first compound 0.253 µM): 0.761 | relative viability ([12]; first compound 0.8 µM): 0.804 | relative viability ([12]; first compound 2.53 µM): 0.575 | relative viability ([12]; first compound 8 µM): 0.604
